Reference: patent US6552014B2, “Methods of inhibiting platelet activation with selective serotonin reuptake inhibitors” (HeartDrug Research, L.L.C., priority 1999, dated 2003)

Legend:
CPIa-IIa = assay: Flow cytometry of platelet antigen expression, platelet rich plasma; assay type: cell-based, human; conditions: PRP; healthy volunteers; desmethylsertraline 64.2 ng/ml
platelets [1] = assay: Platelet aggregation in platelet rich plasma (ADP or collagen); assay type: cell-based, human; conditions: for platelet aggregation in PRP (FIGS. 5 and 6), in words: post-coronary angioplasty patient, activated with ADP or collagen
Protocol: Trisodium citrate (3.8%) and whole blood is immediately mixed in a 1:9 ratio, and then centrifuged at 1200 g for 2.5 minutes, to obtain platelet-rich plasma (PRP), which is kept at room temperature for use within 1 hour for platelet aggregation studies. Platelet count is determined in each PRP sample with a Coulter Counter ZM (Coulter Co., Hialeah, Fla.). Platelet numbers are adjusted to 3.50×10^8/ml for aggregation with homologous platelet-poor plasma. PRP and whole blood aggregation tests are performed simultaneously. Whole blood is diluted 1.1 with the 0.5 ml PBS, and then swirled gently to mix . The cuvette with the stirring bar is placed in the incubation well and allowed to warm to 37° C. for 5 minutes. Then the sample are transferred to the assay well. An electrode is placed in the sample cuvette. Platelet aggregation is stimulated with 5 μM ADP, 1 μg/ml collagen, and 0.75 mM arachidonic acid. All agonists are obtained from Chronolog Corporation (Hawertown, Pa.). Platelet aggregation studies are performed using a Chrono-Log Whole Blood Lumi-Aggregometer (model 560 -Ca). Platelet aggregability are expressed as the percentage of light transmittance change from baseline using platelet-poor plasma as a reference at the end of recording time for plasma samples, or as a change in electrical impedance for whole blood samples. Aggregation curves are recorded for 4 minutes and analyzed according to internationally established standards using Aggrolinkg® software.

platelets [2] = assay: PFA-100 closure time, collagen/ADP cartridge; assay type: cell-based, human; conditions: whole blood from a healthy volunteer, increasing concentrations
From the text: A Platelet-Function Analyzer referred to as PFA-100® (Dade Behring, Deerfield Ill.) was used. The PFA-100® is a high shear-inducing analyzer that simulates primary hemostasis after injury to a small vessel under flow conditions. The PFA-100® system measures the time required for a patient's blood sample to form a“platelet plug” in the first phase of blood clot formation. That time interval, which normally ranges from one to three minutes, is called “closure time.” The device provides a constant negative pressure that aspirates whole blood which comes into contact with the collagen coated membrane and then passes through the aperture. The time required to obtain occlusion of the aperture is digitally recorded.
The PFA-100® system permits detection of platelet dysfunction during primary hemostasis, the first phase of hemostasis or coagulation. The system consists of a microprocessor-controlled instrument and disposable test cartridges that measure how well a patient's platelets adhere and aggregate to form a platelet plug.
An in vitro system for the detection of platelet dysfunction, PFA-100™, has been developed. It provides a quantitative measure of platelet function in anticoagulated whole blood. The system comprises a microprocessor-controlled instrument and a disposable test cartridge containing a biologically active membrane. […]

GP IIb = assay: Flow cytometry of platelet antigen expression, platelet rich plasma; assay type: cell-based, human; conditions: PRP, desmethylsertraline 64.2 ng/ml
PECAM-1 = assay: Ex vivo soluble PECAM-1 plasma levels in patients; design: species or system human; conditions: patients with depression following myocardial infarction; after 16 weeks of the sertraline/placebo therapy
Protocol: Soluble P-selectin (Centocor, Inc., Malvern, Pa. USA); and PECAM-1 (Bender MedSystems, Vienna, Austria) are measured Plasma samples will be extracted with ethanol and then stored at −80° C. before final determination. Enzyme-linked immunosorbent assays will be used according standard techniques and as described herein.

[3] = single doses in volunteers; cited from earlier work
[4] = in vivo; cited from earlier work

| SMILES | CPIa-IIa (mean) log fluorescence intensity (CPIa-IIa) | CPIa-IIa (peak) log fluorescence intensity (CPIa-IIa) | platelet aggregation in PRP (FIGS. 5 and 6), in words (platelets [1]; PRP) | closure time (time for a platelet plug to form) (FIG. 11), in words (platelets [2]) | GP IIb (mean) log fluorescence intensity (GP IIb; healthy volunteers) | GP IIb (peak) log fluorescence intensity (GP IIb; post-angioplasty patient on aspirin) | ex vivo PECAM-1 plasma levels, in words (PECAM-1) | dose at which sedative potential is evident [3] [mg/daily] | percent of platelet aggregation (FIGS. 2 and 3), in words (platelets [1]; PRP, healthy volunteer, induced with ADP or collagen, sertraline 18.1, 44.7 or 85.3 ng/ml) | ADP-, and collagen-induced platelet aggregation in plasma (in vitro), in words (platelets [1]; healthy controls and patients with coronary artery disease, including those on aspirin) | half life [4] [h] |
| --- | --- | --- | --- | --- | --- | --- | --- | --- | --- | --- | --- |
| N[C@H]1CC[C@@H](c2ccc(Cl)c(Cl)c2)c2ccccc21 [Desmethyl sertraline, N-desmethylsertraline] | 42 | 40 | decrease in platelet aggregation | decrease in the time | 37 | 20 |  |  |  |  |  |
| CN[C@H]1CC[C@@H](c2ccc(Cl)c(Cl)c2)c2ccccc21 [sertraline] |  |  | decrease in platelet aggregation | decrease in the time |  |  | Mild, but consistent reduction | ≥ 200 | decreases with increasing amounts of sertraline | Dose-dependent inhibition | 25 to 32 |
